Results reported in PubChem BioAssay AID190 (DTP/NCI, 2004).
Where “and” joins values, the source holds several entries; their conditions need not be identical. Equal entries are not always repeated. Toxic doses and inconclusive results are not listed. Rule for the calls: active = survival T/C of 150% or more; inactive = T/C below 125% in these data.

Test system: AKR/Lw mice, AKR lymphoma ip, median survival T/C
Assay: NCI In Vivo Anticancer Drug Screen. Data for tumor model Lymphoma AKR (Transplanted) (intraperitoneal) in AKR/Lw mice
Conditions: endpoint: median survival time, higher = longer survival
Method: The antitumor activity of compounds was measured in mice bearing transplantable tumors. Survival or tumor size were measured and the results are expressed as the measurement made in the treated group (T) divided by the measurement made in the vehicle treated control group (C). The tumor model used in this assay is Lymphoma AKR (Transplanted) (intraperitoneal) in AKR/Lw mice

[1] = dose: 100.0 mg/kg/injection, schedule: Q01DX001 (ip), vehicle: Klucel (hydroxypropylcellulose) (HPC)

Measured: T/C

Nc1n[nH]c(N)n1
inactive: dose: 37.5 mg/kg/injection, schedule: Q06HX012 (ip), vehicle: saline 96 % of control | dose: 37.5 mg/kg/injection, schedule: Q06HX016 (ip), vehicle: saline 100 % of control | dose: 50.0 mg/kg/injection, schedule: Q01DX010 (ip), vehicle: saline 106 % of control | dose: 75.0 mg/kg/injection, schedule: Q06HX008 (ip), vehicle: saline 100 % of control | dose: 75.0 mg/kg/injection, schedule: Q06HX012 (ip), vehicle: saline 93 % of control | dose: 75.0 mg/kg/injection, schedule: Q06HX016 (ip), vehicle: saline 96 % of control | dose: 100.0 mg/kg/injection, schedule: Q01DX010 (ip), vehicle: saline 103 % of control | dose: 125.0 mg/kg/injection, schedule: Q06HX004 (ip), vehicle: saline 116 % of control | dose: 150.0 mg/kg/injection, schedule: Q01DX009 (ip), vehicle: saline 103 % of control | dose: 150.0 mg/kg/injection, schedule: Q06HX008 (ip), vehicle: saline 93 % of control | dose: 150.0 mg/kg/injection, schedule: Q06HX012 (ip), vehicle: saline 110 % of control | dose: 150.0 mg/kg/injection, schedule: Q06HX016 (ip), vehicle: saline 103 % of control | dose: 175.0 mg/kg/injection, schedule: Q01DX010 (ip), vehicle: saline 109 % of control | dose: 200.0 mg/kg/injection, schedule: Q04DX003 (ip), vehicle: saline 106 % of control | dose: 250.0 mg/kg/injection, schedule: Q01DX010 (ip), vehicle: saline 112 % of control | dose: 250.0 mg/kg/injection, schedule: Q06HX004 (ip), vehicle: saline 90 % of control and 92 % of control and 119 % of control | dose: 300.0 mg/kg/injection, schedule: Q01DX009 (ip), vehicle: saline 100 % of control | dose: 300.0 mg/kg/injection, schedule: Q06HX008 (ip), vehicle: saline 107 % of control | dose: 300.0 mg/kg/injection, schedule: Q06HX012 (ip), vehicle: saline 100 % of control | dose: 375.0 mg/kg/injection, schedule: Q01DX010 (ip), vehicle: saline 116 % of control | dose: 400.0 mg/kg/injection, schedule: Q04DX003 (ip), vehicle: saline 110 % of control | dose: 450.0 mg/kg/injection, schedule: Q06HX008 (ip), vehicle: saline 107 % of control | dose: 450.0 mg/kg/injection, schedule: Q06HX012 (ip), vehicle: saline 92 % of control | dose: 500.0 mg/kg/injection, schedule: Q06HX004 (ip), vehicle: saline 88 % of control and 116 % of control | dose: 530.0 mg/kg/injection, schedule: Q04DX003 (ip), vehicle: saline 109 % of control | dose: 675.0 mg/kg/injection, schedule: Q06HX012 (ip), vehicle: saline 107 % of control | dose: 800.0 mg/kg/injection, schedule: Q04DX003 (ip), vehicle: saline 121 % of control | dose: 1000.0 mg/kg/injection, schedule: Q06HX008 (ip), vehicle: saline 92 % of control

NC(=O)c1[nH]nc(C2OC(CO)C(O)C2O)c1O (stereo not drawn)
inactive: dose: 0.07 mg/kg/injection, schedule: Q01DX009 (ip), vehicle: saline 86 % of control | dose: 0.25 mg/kg/injection, schedule: Q04DX003 (ip), vehicle: saline 105 % of control | dose: 0.5 mg/kg/injection, schedule: Q04DX003 (ip), vehicle: saline 105 % of control | dose: 0.75 mg/kg/injection, schedule: Q04DX003 (ip), vehicle: saline 88 % of control | dose: 1.0 mg/kg/injection, schedule: Q04DX003 (ip), vehicle: saline 90 % of control | dose: 7.5 micrograms/kg/injection, schedule: Q01DX009 (ip), vehicle: saline 110 % of control | dose: 15.0 micrograms/kg/injection, schedule: Q01DX009 (ip), vehicle: saline 121 % of control | dose: 30.0 micrograms/kg/injection, schedule: Q01DX009 (ip), vehicle: saline 103 % of control | dose: 60.0 micrograms/kg/injection, schedule: Q01DX009 (ip), vehicle: saline 121 % of control

COc1ccc(CCN2C(=O)CSC2=S)cc1OC
inactive: [1] 100 % of control | dose: 400.0 mg/kg/injection, schedule: Q01DX001 (ip), vehicle: Klucel (hydroxypropylcellulose) (HPC) 100 % of control

O=C(O)/C=C/C(=O)Nc1cccc(Oc2ccc([N+](=O)[O-])cc2[N+](=O)[O-])c1
inactive: dose: 100.0 mg/kg/injection, schedule: Q01DX001 (ip), vehicle: saline 91 % of control | dose: 200.0 mg/kg/injection, schedule: Q01DX001 (ip), vehicle: saline 103 % of control

O=CN(c1ccccc1)c1ccccc1
inactive: dose: 25.0 mg/kg/injection, schedule: Q01DX001 (ip), vehicle: Klucel (hydroxypropylcellulose) (HPC) 111 % of control | dose: 50.0 mg/kg/injection, schedule: Q01DX001 (ip), vehicle: Klucel (hydroxypropylcellulose) (HPC) 105 % of control | [1] 97 % of control | dose: 100.0 mg/kg/injection, schedule: Q01DX001 (ip), vehicle: other 120 % of control | dose: 200.0 mg/kg/injection, schedule: Q01DX001 (ip), vehicle: other 118 % of control | dose: 400.0 mg/kg/injection, schedule: Q01DX001 (ip), vehicle: other 100 % of control

CCn1c(O)c(C=N)c(=O)n(CC)c1=O
inactive: dose: 12.0 mg/kg/injection, schedule: Q01DX001 (ip), vehicle: saline 97 % of control | dose: 12.5 mg/kg/injection, schedule: Q04DX003 (ip), vehicle: Klucel (hydroxypropylcellulose) (HPC) 100 % of control | dose: 25.0 mg/kg/injection, schedule: Q01DX001 (ip), vehicle: saline 111 % of control | dose: 25.0 mg/kg/injection, schedule: Q04DX003 (ip), vehicle: Klucel (hydroxypropylcellulose) (HPC) 93 % of control | dose: 50.0 mg/kg/injection, schedule: Q01DX001 (ip), vehicle: saline 94 % of control | dose: 50.0 mg/kg/injection, schedule: Q04DX003 (ip), vehicle: Klucel (hydroxypropylcellulose) (HPC) 97 % of control
